According to ChEMBL document CHEMBL4145565, “Prolyl Hydroxylase Inhibitors: A Breakthrough in the Therapy of Anemia Associated with Chronic Diseases” (J Med Chem, 2018):

How the values were obtained:
Egl nine homolog 1 [1] = target: T1, Egl nine homolog 1 (Homo sapiens, UniProt Q9GZT9); assay: Inhibition of HIF-PHD2 (unknown origin) by fluorescence polarization assay
Homo sapiens [2] = species on record: Homo sapiens; assay: Selectivity ratio of IC50 for HIF-PHD2 (unknown origin) to IC50 for HIF-PHD1 (unknown origin)
Homo sapiens [3] = species on record: Homo sapiens; assay: Inhibition of PHD (unknown origin) assessed as induction of EPO by cell based assay relative to control
Homo sapiens [4] = species on record: Homo sapiens; assay: Selectivity ratio of IC50 for PHD3 (unknown origin) to IC50 for PHD2 (unknown origin)
Prolyl hydroxylase EGLN3 [5] = target: T2, Prolyl hydroxylase EGLN3 (Homo sapiens, UniProt Q9H6Z9); assay: Inhibition of PHD3 (unknown origin)
T2 sequence (Q9H6Z9 whole entry): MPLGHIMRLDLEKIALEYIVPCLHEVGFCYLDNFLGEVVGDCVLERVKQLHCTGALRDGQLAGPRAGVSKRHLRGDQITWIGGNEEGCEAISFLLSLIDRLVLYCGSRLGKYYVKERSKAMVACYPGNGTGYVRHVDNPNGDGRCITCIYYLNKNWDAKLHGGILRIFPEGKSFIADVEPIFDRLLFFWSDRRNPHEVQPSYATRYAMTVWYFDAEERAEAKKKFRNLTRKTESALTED

Homo sapiens [6] = assay: In vivo inhibition of PHD in human assessed as induction of EPO level in serum at 10 mg measured after 4 weeks; type: functional
Mus musculus [7] = assay: In vivo inhibition of PHD in B6D2F1 mouse assessed as induction of EPO level at 60 mg/kg measured at 12 hrs post dose relative to control; type: functional
Prolyl hydroxylase EGLN2 = Prolyl hydroxylase EGLN2 (Homo sapiens, UniProt Q96KS0); assay: Inhibition of PHD1 (unknown origin)
Chain of Prolyl hydroxylase EGLN2 (Q96KS0 whole entry): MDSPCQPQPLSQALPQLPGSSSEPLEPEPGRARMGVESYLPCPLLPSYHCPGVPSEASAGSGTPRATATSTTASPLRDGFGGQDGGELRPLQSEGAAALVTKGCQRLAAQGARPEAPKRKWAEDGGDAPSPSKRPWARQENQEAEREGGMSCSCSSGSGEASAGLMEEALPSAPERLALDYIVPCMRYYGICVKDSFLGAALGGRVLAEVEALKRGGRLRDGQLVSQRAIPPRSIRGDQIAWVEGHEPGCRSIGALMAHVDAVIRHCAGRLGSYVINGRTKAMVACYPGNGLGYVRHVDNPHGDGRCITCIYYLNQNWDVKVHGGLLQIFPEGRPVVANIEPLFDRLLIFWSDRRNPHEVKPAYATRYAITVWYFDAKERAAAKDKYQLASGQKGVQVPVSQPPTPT

Homo sapiens [8] = assay: In vivo inhibition of PHD in human assessed as induction of EPO level in serum at 900 mg measured after 18 hrs; type: functional
[9] = Inhibition of PHD in rat H9C2 cells after 24 hrs by ELISA; type: cell-based
Mus musculus [10] = assay: Cardioprotective activity in C57BL/6 mouse assessed as reduction in lactate dehydrogenase release to coronary effluent at 10 mg/kg measured at 4 hrs post dose relative to control; type: functional; design: scale not given: the % may be the effect or the level left
Mus musculus [11] = assay: Cardioprotective activity in C57BL/6 mouse assessed as induction in VEGF mRNA levels at 60 mg/kg, po measured at 2 hrs post dose by qRT-PCR relative to control; type: functional
Mus musculus [12] = assay: Cardioprotective activity in C57BL/6 mouse assessed as reduction in area of infract at 10 mg/kg measured at 4 hrs post dose relative to control; type: functional; design: scale not given: the % may be the effect or the level left
Mus musculus [13] = assay: Cardioprotective activity in C57BL/6 mouse assessed as reduction in lactate dehydrogenase release to coronary effluent at 30 mg/kg measured at 4 hrs post dose relative to control; type: functional; design: scale not given: the % may be the effect or the level left
[14] = Inhibition of PHD (unknown origin); design: species or system Homo sapiens
Mus musculus [15] = assay: Cardioprotective activity in C57BL/6 mouse assessed as reduction in area of infract at 30 mg/kg measured at 4 hrs post dose relative to control; type: functional; design: scale not given: the % may be the effect or the level left
Egl nine homolog 1 [16] = target: T1, Egl nine homolog 1; assay: Inhibition of FLAG- tagged full length HIF-PHD2 (unknown origin) expressed in baculovirus-infected Sf9 cells using biotin labelled DLDLEMLAPYIPMDDDFQL as substrate preincubated for 30 mins followed by substrate addition measured after 2 hrs by LANCE assay
Prolyl hydroxylase EGLN3 [17] = target: T2, Prolyl hydroxylase EGLN3; assay: Inhibition of His tagged MBP-PHD3 (1 to 230 residues) (unknown origin) expressed in Escherichia coli using Cy5-labelled HIF2alpha as substrate preincubated for 3 mins followed by substrate addition nmeasured after 30 mins by LANCE assay
[18] = Inhibition of PHD (unknown origin) by FRET assay; design: species or system Homo sapiens
Egl nine homolog 1 [19] = target: T1, Egl nine homolog 1; assay: Inhibition of N-terminal truncated PHD2 (unknown origin) using biotin labelled DLDLEMLAPYIPMDDDFQL as substrate by AlphaScreen assay
[20] = Oral bioavailability in dog; type: ADME, organism-based, Canis lupus familiaris; settings: in vivo
Rattus norvegicus [21] = assay: In vivo inhibition of PHD in Wistar rat assessed as increase in packed cell volume at 1.25 mg/kg, po measured after 26 days relative to control; type: functional; design: scale not given: the % may be the effect or the level left
[22] = Oral bioavailability in monkey; type: ADME, organism-based, Macaca mulatta; settings: rhesus monkey, in vivo
Rattus norvegicus [23] = assay: In vivo inhibition of PHD in Wistar rat assessed as increase in packed cell volume at 5 mg/kg, po measured after 26 days relative to control; type: functional; design: scale not given: the % may be the effect or the level left
[24] = Oral bioavailability in Wistar rat; type: ADME, organism-based; settings: in vivo
[25] = Half life in human at 1 to 2 mg/kg, po administered as two or three times weekly; type: ADME, organism-based; settings: in vivo
Homo sapiens [26] = assay: In vivo inhibition of PHD in human assessed as induction of EPO level in serum at 1 mg/kg, po administered as twice weekly measured at 4 to 10 hrs post dose; type: functional
Homo sapiens [27] = species on record: Homo sapiens; assay: Antianemic activity in human assessed as increase in hemoglobin level; type: functional
[28] = Inhibition of PHD in human A549 cells by luciferase reporter gene assay; type: cell-based
Homo sapiens [29] = species on record: Homo sapiens; assay: Inhibition of PHD in human Hep3B cells assessed as induction of EPO level by cell based assay relative to control
Egl nine homolog 1 [30] = target: T1, Egl nine homolog 1; assay: Inhibition of human PHD2 expressed in 293FT cells using HIF-1 [alpha] as substrate after 20 mins by fluorescence polarization assay

T1 sequence (Q9GZT9 whole entry): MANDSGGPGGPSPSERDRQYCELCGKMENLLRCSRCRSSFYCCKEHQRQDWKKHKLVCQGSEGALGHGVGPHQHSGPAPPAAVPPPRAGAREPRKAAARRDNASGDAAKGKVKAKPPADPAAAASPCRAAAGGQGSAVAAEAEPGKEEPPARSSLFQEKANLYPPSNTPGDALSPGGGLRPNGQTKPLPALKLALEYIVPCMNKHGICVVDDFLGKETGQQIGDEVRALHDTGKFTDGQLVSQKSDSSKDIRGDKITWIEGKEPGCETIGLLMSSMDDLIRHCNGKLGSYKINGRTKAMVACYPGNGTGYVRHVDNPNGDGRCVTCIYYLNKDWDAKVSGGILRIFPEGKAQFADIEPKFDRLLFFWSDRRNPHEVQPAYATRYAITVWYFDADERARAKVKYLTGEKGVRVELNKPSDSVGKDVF

O=C(O)CNC(=O)c1ncc(C#CCOc2ccc(Cl)cc2)cc1O [DDO-3055]
IC50 (Egl nine homolog 1 [1]): 13.7 µM

O=C(O)CNC(=O)c1ncc(-c2cccc(F)c2)cc1O
IC50 (Egl nine homolog 1 [1]): 13.7 µM

CC(CC(=O)O)NC(=O)c1nc(C#N)c2cc(Oc3ccccc3)ccc2c1O (stereo not given)
Ratio IC50 (Homo sapiens [2]): 40

O=C(O)c1cnn(-c2nc(O)c3c(cnn3C(c3ccc(Cl)cc3)c3ccc(Cl)cc3)n2)c1
fold change (FC) (Homo sapiens [3]): 40 | Ratio IC50 (Homo sapiens [4]): 130

O=C(O)CNC(=O)c1c(O)n(C2CCCCC2)c(=O)n(C2CCCCC2)c1=O
IC50 (Prolyl hydroxylase EGLN3 [5]): 0.0055 µM | Activity (Homo sapiens [6]): 500 mIU/ml | fold change (FC) (Mus musculus [7]): 11.2 | IC50 (Prolyl hydroxylase EGLN2): 0.0035 µM

O=C(O)CNC(=O)c1ncc(-c2cccc(Cl)c2)cc1O
Activity (Homo sapiens [8]): 32.4 mU/ml

CCN1CCN(C(=O)c2ccc(-n3ncc(-c4ccc(C#N)cc4C)c3O)nc2)CC1
pEC50 [9]: 6.25 | Activity (Mus musculus [10]): 51% | fold change (FC) (Mus musculus [11]): 2 | Activity (Mus musculus [12]): 50% | Activity (Mus musculus [13]): 56% | pIC50 [14]: 8 | Activity (Mus musculus [15]): 59%

N#Cc1nc(C(=O)NCCC(=O)O)c(O)c2ccc(Oc3ccccc3)cc12
Ratio IC50 (Homo sapiens [2]): 5

COCC1(CNC(=O)c2ccc(-n3ncc(-c4ccnc(OC)c4)c3O)nc2)CCCC1
pEC50 [9]: 6.45 | pIC50 [14]: 8.4

O=C(Cc1ccc(-c2ccccc2)cc1)Nc1cnc(-n2cccn2)nc1O
IC50 (Egl nine homolog 1 [16]): 0.0007 µM

COc1ccc(-n2c(=S)[nH]c3cc(C(=O)NCc4ccc(Cl)cc4)sc3c2=O)nc1OC
IC50 (Prolyl hydroxylase EGLN3 [17]): 0.001 to 0.1 µM

CC(C)(C)NC(=O)c1ccc(-n2[nH]cc(-c3cccnc3)c2=O)nc1
IC50 [18]: 0.91 µM

O=C(O)CCC(=O)NNC(=O)c1cc2ccccc2cn1
IC50 (Egl nine homolog 1 [19]): 18.4 µM

COc1ccc(C(NC(=O)c2cnc(-c3cccnn3)nc2O)c2ccc([PH](=O)O)cc2)cc1 (stereo not given)
IC50 (Egl nine homolog 1 [16]): < 0.01 µM

O=c1c(-n2ccnn2)c[nH]n1-c1cc(N2CCOCC2)ncn1 [MOLIDUSTAT]
bioavailability [20]: 71% | Activity (Rattus norvegicus [21]): 3% | bioavailability [22]: 61% | Activity (Rattus norvegicus [23]): 17% | bioavailability [24]: 34%

Cc1nc(C(=O)NCC(=O)O)c(O)c2ccc(Oc3ccccc3)cc12 [ROXADUSTAT]
half-life [25]: 12 h | Activity (Homo sapiens [26]): 115 mU/ml | Activity (Homo sapiens [27]): >=1 g/dl

O=c1c(-c2cccnc2)c[nH]n1-c1ccccn1
IC50 [18]: 0.43 µM | EC50 [28]: 4.9 µM

COc1ccc(-n2c(=O)[nH]c3cc(C(=O)NCc4ccc(Cl)cc4)sc3c2=O)nc1OC
IC50 (Prolyl hydroxylase EGLN3 [17]): 0.001 to 0.1 µM

CC(=O)Nc1c[nH]n(-c2ccc(C(=O)NCc3cccc(-c4ccccc4)c3)cc2)c1=O
fold change (FC) (Homo sapiens [29]): 40

O=C(NCc1ccc2c(c1)CCO2)c1ccc(-c2ncn[nH]2)nc1
IC50 (Egl nine homolog 1 [30]): 0.061 µM

COc1ccc(Oc2ccc3c(O)c(C(=O)NC(C)(C)CC(=O)O)nc(C#N)c3c2)cc1
Ratio IC50 (Homo sapiens [2]): 40

O=C(O)CCNC(=O)c1ncc(C(=O)NC(c2ccccc2)c2ccccc2)c(O)n1
IC50 (Egl nine homolog 1 [16]): < 0.02 µM
